The structures appear in SMILES notation. Several values for one entry are separate records, joined by “and”; a condition that tells them apart may be missing. Identical values can stand only once.

This experiment addresses T1, human TG2 (Homo sapiens, UniProt P21980).
T1 sequence (P21980 1-687): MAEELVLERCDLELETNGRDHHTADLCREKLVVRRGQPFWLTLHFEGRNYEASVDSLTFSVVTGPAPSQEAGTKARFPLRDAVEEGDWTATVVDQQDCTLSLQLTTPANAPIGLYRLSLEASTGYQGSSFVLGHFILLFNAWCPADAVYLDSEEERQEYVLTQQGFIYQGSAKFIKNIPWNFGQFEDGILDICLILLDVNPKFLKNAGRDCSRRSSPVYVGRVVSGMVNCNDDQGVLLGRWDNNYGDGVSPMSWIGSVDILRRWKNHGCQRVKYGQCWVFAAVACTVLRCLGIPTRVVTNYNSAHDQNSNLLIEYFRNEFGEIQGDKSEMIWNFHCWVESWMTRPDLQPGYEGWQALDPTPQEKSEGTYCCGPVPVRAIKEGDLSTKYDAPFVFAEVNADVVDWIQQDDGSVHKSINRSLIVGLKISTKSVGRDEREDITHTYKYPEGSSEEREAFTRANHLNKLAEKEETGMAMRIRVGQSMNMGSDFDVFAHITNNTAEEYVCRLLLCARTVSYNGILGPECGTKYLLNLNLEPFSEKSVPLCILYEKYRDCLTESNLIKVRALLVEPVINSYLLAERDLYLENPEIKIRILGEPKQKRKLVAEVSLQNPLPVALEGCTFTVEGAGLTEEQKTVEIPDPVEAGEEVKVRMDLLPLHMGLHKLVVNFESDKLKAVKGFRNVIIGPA
Briefly: fluorescent screening assay for human TG2. The class given is biochemical. Conditions: 20 nM TG2, 8 μM N,N-dimethylated Casein, 16 μM KxD, pH 7.4, 37° C. The protocol: (§1) The fluorescent screening assay for human TG2 was performed as described herein: Assay conditions were 20 nM TG2, 8 μM N,N-dimethylated Casein (NMC) and 16 μM K×D (used for all transglutaminase assays) in 25 mM Hepes, pH 7.4, 250 mM NaCl, 2 mM MgCl2, 0.5 mM CaCl2, 0.2 mM DTT, 0.05% Pluronic F-127 at 37° C. A time point was taken with a microplate reader (Safire or Ultra, Tecan; ex: 350 nm, em: 535 nm) every 3 minutes for up to 2 hours and the initial linear reaction progress was used to determine the reaction velocity as a measure for enzyme activity. Assay conditions were identical for human TG6 and similar for human TG1 and mouse TG2 apart from enzyme concentration (mTG2 at 5 nM; TG1 at 10 nM) and CaCl2 concentration (0.2 mM for mTG2; 0.05 mM for TG1). Factor XIIIa was activated using 0.1 μg/μl thrombin (Sigma) in 35 mM Tris pH 8.0 for 20 min at 30° C. and the transamidation reaction was performed with 20 nM Factor XIIIa in 50 mM Tris pH 8.0, 1.25 mM CaCl2, 0.05% Pluronic, 0.2 mM DTT. TG3 was activated with 0.02 μg/μl thrombin under the same conditions as Factor XIIIa and assay conditions were 10 nM TG3 in 50 mM Hepes, pH 8, 20 mM CaCl2, 0.2 mM DTT, 0.05% Pluronic F-127.
as §1, with “A” for “The”
The term IC50 denotes the concentration needed to halve the response being measured. A low value points to greater potency in that assay. On to `C=CC(=O)Nc1ccc(S(=O)(=O)N2CCN(C(=O)OCc3cc(F)cc(F)c3)CC2)cc1` [4-(4-Acryloylamino-benzenesulfonyl)-piperazine-1-carboxylic acid 3,5-difluoro-benzyl ester], for which the IC50 is 100 to 1000 nM and < 100 nM.

`C=CC(=O)Nc1ccc(S(=O)(=O)N2CCN(C(=O)OCc3ccccc3C)CC2)cc1` [4-(4-Acryloylamino-benzenesulfonyl)-piperazine-1-carboxylic acid 2-methyl-benzyl ester]: the IC50 is 100 to 1000 nM and < 100 nM.

Regarding `C=CC(=O)Nc1ccc(S(=O)(=O)N2CCN(C(=O)OC3CCCC3)CC2)cc1` [4-(4-Acryloylamino-benzenesulfonyl)-piperazine-1-carboxylic acid cyclopentyl ester], the IC50 is 100 to 1000 nM and < 100 nM.

Turning to `C=CC(=O)Nc1ccc(S(=O)(=O)N2CCN(C(=O)OCc3cccc(OC)c3OC)CC2)cc1` [4-(4-Acryloylamino-benzenesulfonyl)-piperazine-1-carboxylic acid 2,3-dimethoxy-benzyl ester], the IC50 is 100 to 1000 nM and < 100 nM.

Molecule `C=C(F)C(=O)Nc1ccc(S(=O)(=O)N2CCN(C(=O)OC(C)(C)C)CC2)cc1` [4-[4-(2-Fluoro-acryloylamino)-benzenesulfonyl]-piperazine-1-carboxylic acid tert-butyl ester] gave an IC50 of 1000 to 25000 nM.

In turn, `C=CC(=O)Nc1cccc(S(=O)(=O)N2CCNCC2)c1` [N-[3-(piperazine-1-sulfonyl)-phenyl]-acrylamide] showed an IC50 of 1000 to 25000 nM.

With `C/C=C\C(=O)Nc1ccc(S(=O)(=O)N2CCN(C(=O)OC(C)(C)C)CC2)cc1` [(Z)-tert-butyl 4-(4-but-2-enamidophenylsulfonyl)piperazine-1-carboxylate], the IC50 was 1000 to 25000 nM.

Regarding `C=CC(=O)Nc1ccc(S(=O)(=O)N2CCN(c3ncccc3C(F)(F)F)CC2)cc1` [N-{4-[4-(3-Trifluoromethyl-pyridin-2-yl)-piperazine-1-sulfonyl]-phenyl}-acrylamide], the IC50 is 100 to 1000 nM and < 100 nM.

On to `C=CC(=O)Nc1ccc(S(=O)(=O)N2CCN(C(=O)Cc3ccc4ccccc4c3)CC2)cc1` [N-{4-[4-(2-Naphthalen-2-yl-acetyl)-piperazine-1-sulfonyl]-phenyl}-acrylamide], for which the IC50 was 100 to 1000 nM and < 100 nM.

Turning to `C=CC(=O)Nc1ccc(S(=O)(=O)N2CCN(c3nccs3)CC2)cc1` [N-[4-(4-Thiazol-2-yl-piperazine-1-sulfonyl)-phenyl]-acrylamide], the IC50 was 100 to 1000 nM and < 100 nM.

Molecule `C=CC(=O)Nc1ccc(S(=O)(=O)N2CCCC2c2ccc(C(F)(F)F)cc2)cc1` (stereo not drawn) [N-{4-[2-(4-Trifluoromethyl-phenyl)-pyrrolidine-1-sulfonyl]-phenyl}-acrylamide] displayed an IC50 of 1000 to 25000 nM.

Consider `C=CC(=O)Nc1ccc(S(=O)(=O)N2CCN(c3ncnc4ccsc34)CC2)cc1` [N-[4-(4-Thieno[3,2-d]pyrimidin-4-yl-piperazine-1-sulfonyl)-phenyl]-acrylamide], for which the IC50 is < 100 nM and 100 to 1000 nM.

Consider `C=CC(=O)Nc1ccc(S(=O)(=O)N2CCN(C(=O)OCc3ccc(F)cc3)CC2)cc1` [4-(4-Acryloylamino-benzenesulfonyl)-piperazine-1-carboxylic acid 4-fluoro-benzyl ester], for which the IC50 was < 100 nM and 100 to 1000 nM.

`C=CC(=O)Nc1ccc(S(=O)(=O)N2CCN(c3nccc4occc34)CC2)cc1` [N-[4-(4-Furo[3,2-c]pyridin-4-yl-piperazine-1-sulfonyl)-phenyl]-acrylamide]: the IC50 was < 100 nM and 100 to 1000 nM.

On to `C=CC(=O)Nc1ccc(S(=O)(=O)N2CCN(C(=O)Cc3cccc(Oc4ccccc4)c3)CC2)cc1` [N-(4-{4-[2-(3-Phenoxy-phenyl)-acetyl]-piperazine-1-sulfonyl}-phenyl)-acrylamide], for which the IC50 is 100 to 1000 nM and < 100 nM.

`C=CC(=O)Nc1ccc(S(=O)(=O)N2CCN(c3ncccn3)CC2)cc1` [N-[4-(4-Pyrimidin-2-yl-piperazine-1-sulfonyl)-phenyl]-acrylamide]: the IC50 is < 100 nM and 100 to 1000 nM.

In turn, `C=CC(=O)Nc1ccc(S(=O)(=O)N(C)CCN(C)C(=O)OCc2ccccc2)cc1` [{2-[(4-Acryloylamino-benzenesulfonyl)-methyl-amino]-ethyl}-methyk-carbamic acid benzyl ester] registered an IC50 of 1000 to 25000 nM.

Molecule `C=CC(=O)Nc1ccc(S(=O)(=O)N2CCC(N)CC2)cc1` [N-[4-(4-Amino-piperidine-1-sulfonyl)-phenyl]-acrylamide] returned an IC50 of 1000 to 25000 nM.

Take `C=CC(=O)Nc1ccc(S(=O)(=O)N2CCN(C(=O)OC(C)C)CC2)cc1` [4-(4-Acryloylamino-benzenesulfonyl)-piperazine-1-carboxylic acid isopropyl ester]: the IC50 is 100 to 1000 nM and < 100 nM.

For `C=CC(=O)Nc1ccc(S(=O)(=O)N2CCN(c3nc(C)cc(C)n3)CC2)cc1` [N-{4-[4-(4,6-Dimethyl-pyrimidin-2-yl)-piperazine-1-sulfonyl]-phenyl}-acrylamide], the half-maximal inhibitory concentration (IC50) is < 100 nM and 100 to 1000 nM.

Regarding `C=CC(=O)Nc1ccc(S(=O)(=O)N2CCN(C(=O)NC3C4CC5CC(C4)CC3C5)CC2)cc1` (stereo not drawn) [4-(4-Acryloylamino-benzenesulfonyl)-piperazine-1-carboxylic acid adamantan-2-ylamide], the IC50 was 100 to 1000 nM and < 100 nM.

On to `C=CC(=O)Nc1ccc(S(=O)(=O)N2CCN(C(=O)NCc3ccccc3)CC2)cc1` [4-(4-Acryloylamino-benzenesulfonyl)-piperazine-1-carboxylic acid benzylamide], for which the IC50 was 100 to 1000 nM and < 100 nM.

On to `C=CC(=O)Nc1ccc(S(=O)(=O)N2CCN(C(=O)N3CCCC3)CC2)cc1` [N-{4-[4-(Pyrrolidine-1-carbonyl)-piperazine-1-sulfonyl]-phenyl}-acrylamide], for which the IC50 was 100 to 1000 nM and < 100 nM.

`C=CC(=O)Nc1ccc(S(=O)(=O)N2CCNCC2)cc1` [N-[4-(piperazine-1-sulfonyl)-phenyl]acrylamide] gave an IC50 of 1000 to 25000 nM.

Regarding `C=CC(=O)Nc1ccc(S(=O)(=O)N2CCN(c3nccc4ccccc34)CC2)cc1` [N-[4-(4-Isoquinolin-1-yl-piperazine-1-sulfonyl)-phenyl]-acrylamide], the IC50 was < 100 nM and 100 to 1000 nM.

In turn, `C=CC(=O)Nc1cccc(S(=O)(=O)N2CCN(c3ccccc3)CC2)c1` [N-[3-(4-Phenyl-piperazine-1-sulfonyl)-phenyl]-acrylamide] came in with an IC50 of 1000 to 25000 nM.

For the molecule `C=CC(=O)Nc1ccc(S(=O)(=O)N2CCN(C(=O)C3CCOCC3)CC2)cc1` [N-{4-[4-(Tetrahydro-pyran-4-carbonyl)-piperazine-1-sulfonyl]-phenyl}-acrylamide], the IC50 is 100 to 1000 nM and < 100 nM.

As to `C=CC(=O)Nc1ccc(S(=O)(=O)N2CCN(c3ccc(Cl)cn3)CC2)cc1` [N-{4-[4-(5-Chloro-pyridin-2-yl)-piperazine-1-sulfonyl]-phenyl}-acrylamide], the IC50 was < 100 nM and 100 to 1000 nM.

Consider `C=CC(=O)Nc1ccc(S(=O)(=O)N2CCN(c3ccnc(Cl)n3)CC2)cc1` [N-{4-[4-(2-Chloro-pyrimidin-4-yl)-piperazine-1-sulfonyl]-phenyl}-acrylamide], for which the IC50 is < 100 nM and 100 to 1000 nM.

As to `C=CC(=O)Nc1ccc(S(=O)(=O)N2CCN(C(=O)N3CCC(F)(F)CC3)CC2)cc1` [N-{4-[4-(4,4-Difluoro-piperidine-1-carbonyl)-piperazine-1-sulfonyl]-phenyl}-acrylamide], the IC50 was 100 to 1000 nM and < 100 nM.

(Values after patent publication US8946197B2, “Transglutaminase TG2 inhibitors, pharmaceutical compositions, and methods of use thereof” (CHDI Foundation, Inc., priority 2009, dated 2015).)
